For 29 compounds, IC50 and inhibition results are on record in US8822449B2, “Substituted aminoindanes and analogs thereof, and the pharmaceutical use thereof” (Sanofi, priority 2008, dated 2014).

Where only a bound is given, the exact number is not on record here.

The target of the first assay is T1, sodium-proton exchanger of subtype 3 (NHE3) (Homo sapiens, UniProt P48764).
T1 construct: expressed in transfected cells
T1 sequence (P48764 26-834): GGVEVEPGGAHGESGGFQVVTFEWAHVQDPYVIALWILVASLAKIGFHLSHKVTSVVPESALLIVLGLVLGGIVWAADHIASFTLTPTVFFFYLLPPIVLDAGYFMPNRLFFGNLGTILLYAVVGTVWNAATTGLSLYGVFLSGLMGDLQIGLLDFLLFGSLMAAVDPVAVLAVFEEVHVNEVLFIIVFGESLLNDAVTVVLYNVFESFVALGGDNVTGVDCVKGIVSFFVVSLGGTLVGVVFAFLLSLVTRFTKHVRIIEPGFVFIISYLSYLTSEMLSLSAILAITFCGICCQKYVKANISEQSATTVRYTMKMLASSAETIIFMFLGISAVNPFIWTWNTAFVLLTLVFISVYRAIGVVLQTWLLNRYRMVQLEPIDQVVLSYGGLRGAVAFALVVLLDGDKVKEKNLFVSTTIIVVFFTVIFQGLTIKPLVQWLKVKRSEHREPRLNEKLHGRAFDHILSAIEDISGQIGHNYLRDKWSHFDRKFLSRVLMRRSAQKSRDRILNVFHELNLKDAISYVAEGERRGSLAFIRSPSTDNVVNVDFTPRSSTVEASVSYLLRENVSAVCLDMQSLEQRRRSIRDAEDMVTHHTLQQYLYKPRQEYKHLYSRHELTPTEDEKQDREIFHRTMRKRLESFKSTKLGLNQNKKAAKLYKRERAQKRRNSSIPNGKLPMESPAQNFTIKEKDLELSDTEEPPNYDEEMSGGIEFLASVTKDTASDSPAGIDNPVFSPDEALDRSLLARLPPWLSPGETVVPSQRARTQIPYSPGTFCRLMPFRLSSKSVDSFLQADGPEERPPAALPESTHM
The assay can be described thus: Recovery of intracellular pH (pHi) after acidification in LAP1 cells stably expressing NHE3 (BCECF fluorescence, FLIPR). It counts as cell-based. Particulars: Activity range (inhibitory effect on NHE3), LAP1 cells stably expressing NHE3; pH recovery after acidification; range 1 is % inhibition at 10 μM.
Regarding `N#Cc1ccc(O[C@H]2c3ccccc3C[C@@H]2N2CCCC2)cc1Cl` (racemic) [Example 392, 2-chloro-4-(rac-trans-(1,2)-2-pyrrolidin-1-ylindan-1-yloxy)benzonitrile], the IC50 was 1000 to 10000 nM. On the same count and under the same terms, the figure for `CCN(CC)[C@@H]1Cc2ccccc2[C@H]1Oc1ccc(N2CCNCC2)cc1` (racemic) [Example 627, Diethyl-[rac-trans-(1,2)-1-(4-piperazin-1-ylphenoxy)indan-2-yl]amine] is 1000 to 10000 nM.

Still in this assay, the particulars now being: LAP1 cells stably expressing NHE3; pH recovery after acidification; range 1 is % inhibition at 10 μM; read-out: Activity range (inhibitory effect on NHE3).
For the compound `Cc1cc(C)n(-c2ccc(O[C@H]3c4cc(Cl)cc(Cl)c4C[C@@H]3N3CC[C@@H](O)C3)c(F)c2)n1` [Example 136, (R)-1-{trans-(1S,2S)-4,6-dichloro-1-[4-(3,5-dimethylpyrazol-1-yl)-2-fluorophenoxy]indan-2-yl}pyrrolidin-3-ol], the inhibition at 10 µM was in the range of 20 to 50%. Same read-out and setting: the figure for `CS(=O)(=O)c1cccc(O[C@H]2c3ccccc3C[C@@H]2N2CCCC2)c1` (racemic) [Example 269, 1-[rac-trans-(1,2)-1-(3-methanesulfonylphenoxy)indan-2-yl]pyrrolidine] is 20 to 50%. The same measure, in the same setting: then `N[C@H]1CCCN([C@H]2CCc3ccccc3[C@@H]2Oc2cc(F)cc(Cl)c2)C1` (racemic) [Example 162, (S)-1-[rac-trans-(1,2)-1-(3-chloro-5-fluorophenoxy)-1,2,3,4-tetrahydronaphthalen-2-yl]piperidin-3-ylamine], with 20 to 50%; and `CN1CCN([C@H]2Cc3c(Cl)cc(Cl)cc3[C@@H]2Oc2ccc(-n3cncn3)cc2)CC1` [Example 296, 1-[trans-(1S,2S)-4,6-dichloro-1-(4-[1,2,4]triazol-1-ylphenoxy)indan-2-yl]-4-methylpiperazine], with 20 to 50%.

Consider `Cc1cc(-n2c(C)nnc2C)ccc1O[C@H]1c2cc(Cl)cc(Cl)c2C[C@@H]1N1CC[C@@H](O)C1` [Example 131, (R)-1-{trans-(1S,2S)-4,6-dichloro-1-[4-(3,5-dimethyl-[1,2,4]triazol-4-yl)-2-methylphenoxy]indan-2-yl}pyrrolidin-3-ol], for which the IC50 was below 1000 nM. Still for that read-out and setting: the figure for `O=C1COC(=O)N1c1ccc(O[C@H]2c3cc(Cl)cc(Cl)c3C[C@@H]2N2CC[C@@H](O)C2)cc1` [Example 427, 3-{4-[(1S,2S)-4,6-dichloro-2-((R)-3-hydroxypyrrolidin-1-yl)indan-1-yloxy]phenyl}oxazolidine-2,4-dione] is 1000 to 10000 nM; for `O=c1[nH]ccn1-c1cccc(O[C@@H]2c3ccccc3C[C@H]2N2CCCC2)c1` (racemic) [Example 254, 1-[3-(rac-trans-(1,2)-2-pyrrolidin-1-ylindan-1-yloxy)phenyl]-1,3-dihydroimidazol-2-one] it is below 1000 nM; for `COc1cccc(F)c1O[C@@H]1c2ccccc2C[C@H]1N1C[C@H]2CNC[C@H]2C1` (racemic) [Example 5, 2-[rac-trans-(1,2)-1-(2-fluoro-6-methoxyphenoxy)indan-2-yl]octahydropyrrolo[3,4-c]pyrrole] it is 1000 to 10000 nM. In the case of `Cc1nnc(C)n1-c1ccc(O[C@H]2c3cc(F)cc(F)c3C[C@@H]2N2CC[C@@H](O)C2)c(F)c1` [Example 110, (R)-1-{(1S,2S)-1-[4-(3,5-dimethyl-[1,2,4]triazol-4-yl)-2-fluorophenoxy]-4,6-difluoroindan-2-yl}pyrrolidin-3-ol], the IC50 was below 1000 nM. On the same count and under the same terms, then `CS(=O)(=O)c1ccc(O[C@H]2c3ccccc3C[C@@H]2N2CCCC2)c(Cl)c1Cl` (racemic) [Example 263, 1-[rac-trans-(1,2)-1-(2,3-dichloro-4-methanesulfonylphenoxy)indan-2-yl]pyrrolidine], with below 1000 nM. On the same count and under the same terms, then `COc1cc(Cl)cc(O[C@@H]2c3ccccc3C[C@H]2N2CCC[C@H](N)C2)c1` (racemic) [Example 164, (S)-1-[rac-trans-(1,2)-1-(3-chloro-5-methoxyphenoxy)indan-2-yl]piperidin-3-ylamine], with 1000 to 10000 nM; and `COCCc1ccc(O[C@@H]2c3ccccc3C[C@H]2N2CCC[C@@H](N)C2)cc1` (racemic) [Example 116, (R)-1-{rac-trans-(1,2)-1-[4-(2-methoxyethyl)phenoxy]indan-2-yl}piperidin-3-ylamine], with 1000 to 10000 nM; and `CC(C)[C@H]1COC(=O)N1c1ccc(F)c(O[C@H]2c3cc(Cl)cc(F)c3C[C@@H]2N2CC[C@@H](O)C2)c1` [Example 210, (S)-3-{3-[(1S,2S)-6-chloro-4-fluoro-2-((R)-3-hydroxypyrrolidin-1-yl)indan-1-yloxy]-4-fluorophenyl}-4-isopropyloxazolidin-2-one], with 1000 to 10000 nM. Take `CS(=O)(=O)c1ccccc1O[C@H]1c2cc(Cl)cc(Cl)c2C[C@@H]1N1CCCC1` [Example 247, 1-[(1S,2S)-4,6-dichloro-1-(2-methanesulfonylphenoxy)indan-2-yl]pyrrolidine]: the inhibition at 10 µM lay within 20 to 50%.

With `COCCN1CCCN([C@H]2Cc3c(Cl)cc(Cl)cc3[C@@H]2Oc2ccc(-c3c(C)noc3C)cc2)CC1` [Example 350, 1-{trans-(1S,2S)-4,6-dichloro-1-[4-(3,5-dimethylisoxazol-4-yl)phenoxy]indan-2-yl}-4-(2-methoxyethyl)-[1,4]diazepane], the IC50 is 1000 to 10000 nM. On the same count and under the same terms, the figure for `N[C@@H]1CCCN([C@H]2CCc3ccccc3[C@@H]2Oc2ccc(Br)cc2-c2cc[nH]n2)C1` (racemic) [Example 117, (R)-1-{rac-trans-(1,2)-1-[4-bromo-2-(1H-pyrazol-3-yl)phenoxy]-1,2,3,4-tetrahydronaphthalen-2-yl}piperidin-3-ylamine] is 1000 to 10000 nM; for `CN(C1CCC1)[C@@H]1Cc2ccccc2[C@H]1Oc1ccc(S(C)(=O)=O)cc1` (racemic) [Example 734, Cyclobutyl-[rac-trans-(1,2)-1-(4-methanesulfonyl-phenoxy)-indan-2-yl]-methyl-amine] it is 1000 to 10000 nM; for `NC(=O)c1cccc(O[C@@H]2c3ccccc3C[C@H]2N2CCC(N)C2)c1` (mixture of isomers) [Example 415, 3-[rac-trans-(1,2)-2-(3-aminopyrrolidin-1-yl)indan-1-yloxy]benzamide] it is 1000 to 10000 nM. On to `N[C@H]1CCCN([C@H]2CCc3ccccc3[C@@H]2Oc2ccc(F)cc2F)C1` (racemic) [Example 149, (S)-1-[rac-trans-(1,2)-1-(2,4-difluorophenoxy)-1,2,3,4-tetrahydronaphthalen-2-yl]piperidin-3-ylamine], for which the inhibition at 10 µM was in the range of 20 to 50%.

As to `CC1(C)NC(=O)N(c2ccc(Cl)c(O[C@H]3c4cc(Cl)cc(F)c4C[C@@H]3N3CC[C@@H](O)C3)c2)C1=O` [Example 436, 3-{4-chloro-3-[(1S,2S)-6-chloro-4-fluoro-2-((R)-3-hydroxypyrrolidin-1-yl)indan-1-yloxy]phenyl}-5,5-dimethylimidazolidine-2,4-dione], the IC50 was in the range of 1000 to 10000 nM. `CS(=O)(=O)c1ccc(O[C@@H]2c3ccccc3C[C@H]2NCC2CC2)cc1` (racemic) [Example 624, Cyclopropylmethyl-[1-(4-methanesulfonylphenoxy)indan-2-yl]amine]: the IC50 lay within 1000 to 10000 nM. Same read-out and setting: the figure for `CCN(CC)[C@@H]1Cc2ccccc2[C@H]1Oc1cccc(N2CCNCC2)c1` (racemic) [Example 626, Diethyl-[rac-trans-(1,2)-1-(3-piperazin-1-ylphenoxy)indan-2-yl]amine] is 1000 to 10000 nM.

As to `N[C@@H]1CCCN([C@H]2CCc3ccccc3[C@@H]2Oc2ccc(F)c(F)c2)C1` (racemic) [Example 51, (R)-1-[rac-trans-(1,2)-1-(3,4-difluorophenoxy)-1,2,3,4-tetrahydronaphthalen-2-yl]piperidin-3-ylamine], the inhibition at 10 µM lay within 20 to 50%. On the same count and under the same terms, the figure for `N[C@@H]1CCCN([C@H]2CCc3ccccc3[C@@H]2Oc2ccccc2N2CCOCC2)C1` (racemic) [Example 48, (R)-1-[rac-trans-(1,2)-1-(2-morpholin-4-ylphenoxy)-1,2,3,4-tetrahydronaphthalen-2-yl]piperidin-3-ylamine] is 20 to 50%. Consider `COC[C@@H]1CCCN1[C@H]1Cc2c(Cl)cc(Cl)cc2[C@@H]1Oc1ccc(-n2c(C)nnc2C)cc1` [Example 562, 4-{4-[trans-(1S,2S)-4,6-dichloro-2-((S)-2-methoxymethylpyrrolidin-1-yl)indan-1-yloxy]phenyl}-3,5-dimethyl-4H-[1,2,4]triazole], for which the IC50 lay in the range of 1000 to 10000 nM. On the same count and under the same terms, the figure for `NCC1CCN([C@@H]2Cc3ccccc3[C@H]2Oc2ccc(-n3cncn3)cc2)C1` (mixture of isomers) [Example 618, C-{1-[rac-trans-(1,2)-1-(4-[1,2,4]triazol-1-ylphenoxy)indan-2-yl]pyrrolidin-3-yl}methylamine] is 1000 to 10000 nM; for `c1cc(CN2CCCCC2)cc(O[C@@H]2c3ccccc3C[C@H]2N2C[C@H]3CNC[C@H]3C2)c1` (racemic) [Example 14, 2-[rac-trans-(1,2)-1-(3-piperidin-1-ylmethylphenoxy)indan-2-yl]octahydropyrrolo[3,4-c]pyrrole] it is 1000 to 10000 nM.
